From patent US20190060284A1, “PHARMACOLOGICAL MODULATORS OF NAV1.1 VOLTAGE-GATED SODIUM CHANNELS ASSOCIATED WITH MECHANICAL PAIN” (priority 2016, published 2019)
“Also recorded” adds a separate entry of the source. Where two headings read alike, the source gives them in different places.

Legend:
[1] = system: cultured somatosensory neurons (TG, DRG); assay: Ratiometric calcium imaging of cultured sensory neurons; format: cell-based, mice or rats
[2] = system: splanchnic colonic afferents (high-threshold mechanoreceptors); assay: Ex vivo gut-nerve single-unit recordings; format: cell-based, mouse; settings: for mechanosensitivity of colonic nociceptors: Compound B 100 μM; for Hm1a-induced mechanical hypersensitivity in the presence of the blocker: Hm1a 100 nM, ICA 500 nM or Compound B 100 μM
Protocol: In vitro single-unit extracellular recordings of action potential discharge were made from splanchnic colonic afferents. Recordings were made from healthy or CVH mice using standard protocols^61-63. Baseline mechanosensitivity was determined in response to application of a 2 g von frey hair (vfh) probe to the afferent receptive field for 3 seconds. This process was repeated 3-4 times, separated each time by 10 seconds. Mechanosensitivity was then re-tested after the application of Hm1a (100 nM) or the Nav1.1 blocker ICA-121432 (500 nM) or a combination of both ICA-121432 (500 nM) and Hm1a (100 nM). Data are presented as spikes/s and are expressed as mean±SEM.
Colitis was induced by administration of TNBS as described previously^62,63. Briefly, 13 week old anaesthetized mice were administered an intra-colonic enema of 0.1 mL TNBS (130 μg/mL in 30% EtOH) via a polyethylene catheter^62,63,66. Histological examination of mucosal architecture, cellular infiltrate, crypt abscesses, and goblet cell depletion confirmed significant TNBS-induced damage by day 3 post-treatment, which largely recovered by day 7, and fully recovered by 28 days. […] As such, they are termed ‘chronic visceral hypersensitivity’ (CVH) mice^62,63,66,68.
Ex vivo single-unit extracellular recordings of action potential discharge were made from splanchnic colonic afferents. Recordings were made from healthy or CVH mice using standard protocols (e.g. Brierley, S. M., Jones, R. C., III, Gebhart, G. F. & Blackshaw, L. A. Splanchnic and pelvic mechanosensory afferents signal different qualities of colonic stimuli in mice. Gastroenterology 127, 166-178 (2004)). Baseline mechanosensitivity was determined in response to application of a 2-g Von Frey hair probe to the afferent receptive field for 3 s. This process was repeated 3-4 times, separated each time by 10 s. Mechanosensitivity was then re-tested after the application of Hm1a (100 nM) or the Nav1.1 blocker compound B (100 μM) or a combination thereof. Instantaneous frequency is defined as the inverse of the time interval between an action potential and the previous action potential. Group data are presented as spikes per second and are expressed as mean±s.e.m.

[3] = system: NTG induced mechanical allodynia; assay: NTG-induced hind paw mechanical allodynia (migraine model); format: in vivo, mouse; settings: for allodynia threshold compared to baseline threshold: 75 and 120 min
Protocol: NTG-induced hind paw mechanical allodynia. Mechanical thresholds were determined with von Frey monofilaments (VFF; eight filaments, range 0.008-2 g, Stoelting Co) using the Dixon up-and-down method^51. For drug testing, 48 naive C57Bl/6 male mice (20-30 g) were divided randomly to the following groups (n=12 mice per group): Vehicle/Cyclodextrin, Vehicle/Compound B 75 mg/kg, NTG/Cyclodextrin, and NTG/Compound B 75 mg/kg. Prior to testing all animals were handled for 1 week in the behavior room during mid-morning using the cupped hand technique^52. On each testing day, a maximum of 12 animals was used, divided equally into the four groups. Mice were confined in clear acrylic cages (8.7″×8.7″×5″) divided into four chambers, each on a raised wire mesh platform that allowed full access to the tested paws. Mice were acclimated for two hours, on the day of testing and one day prior. Mechanical thresholds were evaluated before (baseline), and 75 and 120 min after i.p. administration of 10 mg/kg NTG (or vehicle), in accordance with NTG's time-to-peak-effect (TPE) in this model (data not shown). 40% Cyclodextrin in saline or 75 mg/kg Compound B dissolved in 40% cyclodextrin in saline, was administered contralateral to NTG administration thirty minutes before the first post-NTG time point, in accordance with compound B's TPE. Each filament was applied perpendicular to the center of each of the hind paw five times, spaced 1 sec apart, starting with the middle VFF (0.4 g). In the absence of a response, the next VFF in the series was applied until a response was witnessed. Response to VFF was recorded as an immediate withdrawal of the tested hind paw to the applied stimulus, with or without an observed licking behavior. The withdrawal threshold was quantified as the mean of both hind paws. The experimenter was blind to the treatment group.

[4] = system: mechanical response thresholds; assay: Von Frey mechanical response thresholds after intraplantar toxin; format: in vivo, mouse; settings: 500 nM in 10 μl intraplantar, WT mice, 30 minutes after injection
Protocol: For behavioral experiments in FIG. 4, adult mice (6-12 weeks) were used. Male and female mice were first considered separately in hindpaw nocifensive response experiments. […] Therefore, male and female behavioral responses were pooled and subsequent experiments were performed on both male and female mice for CKO and WT littermate experiments, or only male mice for other conditions (e.g. Cap ablation). Nocifensive responses were recorded during a 20 minute observation period immediately following intraplantar injections (10 μl PBS with or without 5 μM Hm1a). Licking/biting behavior was scored as seconds of behavior with the experimenter blinded to injection condition and experimental cohort (WT, CKO or Cap Ablated mice). Hargreaves and Von Frey tests were performed 30 minutes after intraplantar injection of 500 nM Hm1a or Hm1b. I.t. cap ablation was performed as previously described^34, and i.t. cap treated mice were tested on a hot plate to ensure ablation of TRPV1+afferents. Ablation was also confirmed by histology.

[5] = Hm1a-sensitive P0 mouse TG neurons

Compound: NC(N)=NC(N)=Nc1cccc(Cl)c1 [mCPBG]
- toxin-sensitive cells that also respond to the agonist [1, 5]: 52%

Compound: CC1CCC(C(C)C)C(O)C1 (centres unmarked) [menthol]
- toxin-sensitive cells that also respond to the agonist [1]: 38%

Compound: C=CCN=C=S [mustard oil]
- toxin-sensitive cells that also respond to the agonist [1, 5]: < 13%

Compound: COc1cc(CNC(=O)CCCC/C=C/C(C)C)ccc1O [capsaicin]
- toxin-sensitive P0 neurons that respond to the agonist (in words) [1, 5]: only a third

Compound: Cc1c(C(N)=O)nnn1Cc1ccccc1 [Compound B]
- mechanosensitivity of colonic nociceptors ([2]; CVH mice, ICA-121431 500 nM): reduced mechanosensitivity in a sub-population; also recorded: inhibition of mechanosensitivity of a subpopulation
- Hm1a-induced mechanical hypersensitivity in the presence of the blocker ([2]; CVH mice): not affected by the presence of Hm1a; also recorded: prevents Hm1a-induced potentiation
- mechanosensitivity of colonic nociceptors ([2]; healthy mice): inhibits the mechanosensitivity; also recorded: inhibition of mechanosensitivity of a subpopulation
- Hm1a-induced mechanical hypersensitivity in the presence of the blocker ([2]; healthy mice): inhibits the sensitizing effect of Hm1a toxin; also recorded: prevents Hm1a-induced potentiation
- NTG induced tactile allodynia ([3]; Compound B 75 mg/kg in 40% cyclodextrin in saline): able to reverse NTG induced tactile allodynia
- allodynia threshold compared to baseline threshold ([3]; NTG 10 mg/kg i.p. + Compound B 75 mg/kg): no significant difference
- allodynia threshold compared to baseline threshold ([3]; Vehicle + Compound B 75 mg/kg): no significant difference

Compound: O=C(Nc1ccc(S(=O)(=O)Nc2nccs2)cc1)C(c1ccccc1)c1ccccc1 [ICA-121431]
- CVH sensitized fibers with reduced mechanosensory responses ([2]; CVH mice, blocker 500 nM): 70%
- subpopulation of CVH colonic afferents inhibited (inhibited/fibers) ([2]; CVH mice, blocker 500 nM): 7/10
- mechanosensitivity of colonic nociceptors ([2]; CVH mice, ICA-121431 500 nM): levels resembling those of baseline controls
- Hm1a-induced mechanical hypersensitivity in the presence of the blocker ([2]; CVH mice): blocks the sensitizing effects of Hm1a
- Hm1a-induced mechanical hypersensitivity in the presence of the blocker ([2]; CVH mice, listed as ICA-121432): failed to induce mechanical hypersensitivity
- fibers in which mechanical responses are reduced and Hm1a sensitization blocked ([2]; healthy mice, blocker 500 nM): 50%
- population of colonic afferents inhibited (inhibited/fibers) ([2]; healthy mice, blocker 500 nM): 5/10
- Hm1a-induced mechanical hypersensitivity in the presence of the blocker ([2]; healthy mice): blocks Hm1a sensitization
- Hm1a-induced mechanical hypersensitivity in the presence of the blocker ([2]; healthy mice, listed as ICA-121432): failed to induce mechanical hypersensitivity
- Hm1a-evoked calcium responses ([1]; blocker 500 nM, Hm1a 500 nM, embryonic DRG and P0 mouse TG cultures): greatly diminishes
- responses to SGTx1 ([1]; in presence of ICA-121431): only partially blocks

Compound: CCCCC[C@H](O)/C=C/[C@H]1[C@H](O)CC(=O)[C@@H]1C/C=C\CCCC(=O)O [prostaglandin E2]
- percentage of toxin sensitive cells ([1]; sensitization of adult neurons prior to toxin exposure): greatly enhances

Compound: NC1=N[C@H](O)[C@H]2[C@H]3O[C@]4(O)O[C@@H]([C@@H](O)[C@@]2(N1)[C@@H]4O)[C@]3(O)CO [Tetrodotoxin]
- Hm1a-evoked calcium responses [1]: blocked

Compound: SGTx1
- cohort of neurons excited compared with Hm1a ([1]; TG and embryonic DRG neurons): excites a larger cohort of TG and embryonic DRG neurons than Hm1a

Compound: δ-theraphotoxin-Hm1b
- sensitization to mechanical stimulation [4]: Equivalent mechanical sensitization
